Laboratory results published in PubChem BioAssay AID1963443 (Molecular Pharmacology Branch, DTP, NCI, 2024).

System: MDA-MB-231 complex spheroids, growth inhibition
Test: Anticancer human tumor MDA-MB-231 cell line growth inhibition [Asc];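 also: spheroids exposed to compounds for 7 days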
Details: for IC50: curve of first compound; for viability, T/C: stronger effect = lower value
How it was run: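 Stromal components (HUVEC and hMSC) are co-assembled with the cancer cells into multicellular spheroids. Drugs are then added singly or paired, at concentrations falling by half-log increments from a clinically achievable maximum, capped at 10 microM without known Cmax.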

[1] = second compound 0.03 µM, first compound 0.00316 µM
[2] = second compound 0.03 µM, first compound 0.01 µM
[3] = second compound 0.03 µM, first compound 0.0316 µM
[4] = second compound 0.03 µM, first compound 0.1 µM
[5] = second compound 0.0949 µM, first compound 0.00316 µM
[6] = second compound 0.0949 µM, first compound 0.01 µM
[7] = second compound 0.0949 µM, first compound 0.0316 µM
[8] = second compound 0.0949 µM, first compound 0.1 µM
[9] = second compound 0.3 µM, first compound 0.00316 µM
[10] = second compound 0.3 µM, first compound 0.01 µM
[11] = second compound 0.3 µM, first compound 0.0316 µM
[12] = second compound 0.3 µM, first compound 0.1 µM
[13] = second compound 0.949 µM, first compound 0.00316 µM
[14] = second compound 0.949 µM, first compound 0.01 µM
[15] = second compound 0.949 µM, first compound 0.0316 µM
[16] = second compound 0.949 µM, first compound 0.1 µM
[17] = second compound 3 µM, first compound 0.00316 µM
[18] = second compound 3 µM, first compound 0.01 µM
[19] = second compound 3 µM, first compound 0.0316 µM
[20] = second compound 3 µM, first compound 0.1 µM

For `COc1c(OCCCN2CCOCC2)ccc2c3n(c(=NC(=O)c4cnc(N)nc4)nc12)CCN3` + CCN1C(C(=O)NC23CCC(C(=O)O)(CC2)CC3)C(c2cccc(Cl)c2F)C2(C(=O)Nc3cc(Cl)ccc32)C12CCCCC2, the IC50 (second compound 0.03 µM) was 81.4 nM, the IC50 (second compound 0.0949 µM) was 79.3 nM and the IC50 (second compound 0.3 µM) was 86.9 nM. For the same compound, the IC50 (second compound 0.949 µM) was 90.8 nM, the IC50 (second compound 3 µM) was 31.4 nM and the viability, T/C [1] was 87.7%. The viability, T/C [2] was 81.5%, the viability, T/C [3] was 61.5% and the viability, T/C [4] was 49.7%. It also gave a viability, T/C (second compound 0.03 µM, first compound 0.316 µM) of 34.6%, a viability, T/C (second compound 0.03 µM, first compound 1 µM) of 33.8% and a viability, T/C [5] of 102%. For the same compound, the viability, T/C [6] was 78.7%, the viability, T/C [7] was 63.4% and the viability, T/C [8] was 47.8%. The viability, T/C (second compound 0.0949 µM, first compound 0.316 µM) was 34.3%, the viability, T/C (second compound 0.0949 µM, first compound 1 µM) was 32.3% and the viability, T/C [9] was 99.3%. For the same compound, the viability, T/C [10] was 88.2%, the viability, T/C [11] was 65.2% and the viability, T/C [12] was 49.9%. It also gave a viability, T/C (second compound 0.3 µM, first compound 0.316 µM) of 34.7%, a viability, T/C (second compound 0.3 µM, first compound 1 µM) of 33.5% and a viability, T/C [13] of 100%. For the same compound, the viability, T/C [14] was 85.9%, the viability, T/C [15] was 66.4% and the viability, T/C [16] was 49%. It also gave a viability, T/C (second compound 0.949 µM, first compound 0.316 µM) of 37%, a viability, T/C (second compound 0.949 µM, first compound 1 µM) of 34.1% and a viability, T/C [17] of 83.3%. For the same compound, the viability, T/C [18] was 67.6%, the viability, T/C [19] was 50.1% and the viability, T/C [20] was 39.3%. It also gave a viability, T/C (second compound 3 µM, first compound 0.316 µM) of 31.2% and a viability, T/C (second compound 3 µM, first compound 1 µM) of 34.1%.

`NC1CCC(NC2CC2c2ccccc2)CC1` (stereo not given) + CNC(C)C(=O)NC1CN(S(=O)(=O)c2cccc(S(=O)(=O)N3CCC4CCC(C(=O)NC(c5ccccc5)c5ccccc5)N4C(=O)C(NC(=O)C(C)NC)C3)c2)CCC2CCC(C(=O)NC(c3ccccc3)c3ccccc3)N2C1=O gave an IC50 (second compound 0.01 µM) of less than 0.316 nM, an IC50 (second compound 0.0316 µM) of less than 0.316 nM and an IC50 (second compound 0.1 µM) of less than 0.316 nM. It also gave an IC50 (second compound 0.316 µM) of less than 0.316 nM, an IC50 (second compound 1 µM) of less than 0.316 nM and a viability, T/C (second compound 0.01 µM, first compound 0.000316 µM) of 4.48%. For the same compound, the viability, T/C (second compound 0.01 µM, first compound 0.001 µM) was 3.37%, the viability, T/C (second compound 0.01 µM, first compound 0.00316 µM) was 3.36% and the viability, T/C (second compound 0.01 µM, first compound 0.01 µM) was 4.1%. For the same compound, the viability, T/C (second compound 0.01 µM, first compound 0.0316 µM) was 4.51%, the viability, T/C (second compound 0.01 µM, first compound 0.1 µM) was 3.46% and the viability, T/C (second compound 0.0316 µM, first compound 0.000316 µM) was 1.91%. It also gave a viability, T/C (second compound 0.0316 µM, first compound 0.001 µM) of 3.37%, a viability, T/C (second compound 0.0316 µM, first compound 0.00316 µM) of 2.61% and a viability, T/C (second compound 0.0316 µM, first compound 0.01 µM) of 2.96%. For the same compound, the viability, T/C (second compound 0.0316 µM, first compound 0.0316 µM) was 2.47%, the viability, T/C (second compound 0.0316 µM, first compound 0.1 µM) was 2.27% and the viability, T/C (second compound 0.1 µM, first compound 0.000316 µM) was 2.48%. It also gave a viability, T/C (second compound 0.1 µM, first compound 0.001 µM) of 2.67%, a viability, T/C (second compound 0.1 µM, first compound 0.00316 µM) of 3.07% and a viability, T/C (second compound 0.1 µM, first compound 0.01 µM) of 2.19%. The viability, T/C (second compound 0.1 µM, first compound 0.0316 µM) was 2.11%, the viability, T/C (second compound 0.1 µM, first compound 0.1 µM) was 2.38% and the viability, T/C (second compound 0.316 µM, first compound 0.000316 µM) was 1.42%. It also gave a viability, T/C (second compound 0.316 µM, first compound 0.001 µM) of 3.18%, a viability, T/C (second compound 0.316 µM, first compound 0.00316 µM) of 2.55% and a viability, T/C (second compound 0.316 µM, first compound 0.01 µM) of 0.99%. For the same compound, the viability, T/C (second compound 0.316 µM, first compound 0.0316 µM) was 1.23%, the viability, T/C (second compound 0.316 µM, first compound 0.1 µM) was 0.81% and the viability, T/C (second compound 1 µM, first compound 0.000316 µM) was 1.08%. The viability, T/C (second compound 1 µM, first compound 0.001 µM) was 1.04%, the viability, T/C (second compound 1 µM, first compound 0.00316 µM) was 1.62% and the viability, T/C (second compound 1 µM, first compound 0.01 µM) was 0.85%. It also gave a viability, T/C (second compound 1 µM, first compound 0.0316 µM) of 0.86% and a viability, T/C (second compound 1 µM, first compound 0.1 µM) of 0.84%.

`Cn1ncnc1[C@H]1c2n[nH]c(=O)c3cc(F)cc(c23)N[C@@H]1c1ccc(F)cc1` + CCN1C(C(=O)NC23CCC(C(=O)O)(CC2)CC3)C(c2cccc(Cl)c2F)C2(C(=O)Nc3cc(Cl)ccc32)C12CCCCC2 was tested, and the IC50 (second compound 0.03 µM) was greater than 100 nM, the IC50 (second compound 0.0949 µM) was greater than 100 nM and the IC50 (second compound 0.3 µM) was greater than 100 nM. The IC50 (second compound 0.949 µM) was greater than 100 nM, the IC50 (second compound 3 µM) was greater than 100 nM and the viability, T/C (second compound 0.03 µM, first compound 0.000316 µM) was 101%. For the same compound, the viability, T/C (second compound 0.03 µM, first compound 0.001 µM) was 96.3%, the viability, T/C [1] was 90.4% and the viability, T/C [2] was 96.2%. It also gave a viability, T/C [3] of 85%, a viability, T/C [4] of 86% and a viability, T/C (second compound 0.0949 µM, first compound 0.000316 µM) of 112%. It also gave a viability, T/C (second compound 0.0949 µM, first compound 0.001 µM) of 101%, a viability, T/C [5] of 93.6% and a viability, T/C [6] of 95.9%. The viability, T/C [7] was 90.2%, the viability, T/C [8] was 88.4% and the viability, T/C (second compound 0.3 µM, first compound 0.000316 µM) was 110%. For the same compound, the viability, T/C (second compound 0.3 µM, first compound 0.001 µM) was 110%, the viability, T/C [9] was 98.5% and the viability, T/C [10] was 102%. The viability, T/C [11] was 89.8%, the viability, T/C [12] was 85.4% and the viability, T/C (second compound 0.949 µM, first compound 0.000316 µM) was 108%. For the same compound, the viability, T/C (second compound 0.949 µM, first compound 0.001 µM) was 109%, the viability, T/C [13] was 102% and the viability, T/C [14] was 97.8%. For the same compound, the viability, T/C [15] was 93.6%, the viability, T/C [16] was 91.8% and the viability, T/C (second compound 3 µM, first compound 0.000316 µM) was 100%. It also gave a viability, T/C (second compound 3 µM, first compound 0.001 µM) of 99.4%, a viability, T/C [17] of 94.4% and a viability, T/C [18] of 91.8%. For the same compound, the viability, T/C [19] was 82% and the viability, T/C [20] was 87.8%.

`NC(=O)C(=Cn1cnc(-c2cc(C(F)(F)F)cc(C(F)(F)F)c2)n1)c1cncnc1` + CNC(C)C(=O)NC1CN(S(=O)(=O)c2cccc(S(=O)(=O)N3CCC4CCC(C(=O)NC(c5ccccc5)c5ccccc5)N4C(=O)C(NC(=O)C(C)NC)C3)c2)CCC2CCC(C(=O)NC(c3ccccc3)c3ccccc3)N2C1=O gave an IC50 (second compound 0.01 µM) of less than 0.949 nM, an IC50 (second compound 0.0316 µM) of less than 0.949 nM and an IC50 (second compound 0.1 µM) of less than 0.949 nM. It also gave an IC50 (second compound 0.316 µM) of less than 0.949 nM, an IC50 (second compound 1 µM) of less than 0.949 nM and a viability, T/C (second compound 0.01 µM, first compound 0.000949 µM) of 3.47%. The viability, T/C (second compound 0.01 µM, first compound 0.003 µM) was 3.32%, the viability, T/C (second compound 0.01 µM, first compound 0.00949 µM) was 2.92% and the viability, T/C (second compound 0.01 µM, first compound 0.03 µM) was 3.34%. The viability, T/C (second compound 0.01 µM, first compound 0.0949 µM) was 3.01%, the viability, T/C (second compound 0.01 µM, first compound 0.3 µM) was 1.3% and the viability, T/C (second compound 0.0316 µM, first compound 0.000949 µM) was 1.67%. For the same compound, the viability, T/C (second compound 0.0316 µM, first compound 0.003 µM) was 1.38%, the viability, T/C (second compound 0.0316 µM, first compound 0.00949 µM) was 1.57% and the viability, T/C (second compound 0.0316 µM, first compound 0.03 µM) was 1.39%. It also gave a viability, T/C (second compound 0.0316 µM, first compound 0.0949 µM) of 1.1%, a viability, T/C (second compound 0.0316 µM, first compound 0.3 µM) of 0.42% and a viability, T/C (second compound 0.1 µM, first compound 0.000949 µM) of 1.05%. The viability, T/C (second compound 0.1 µM, first compound 0.003 µM) was 1.72%, the viability, T/C (second compound 0.1 µM, first compound 0.00949 µM) was 1.5% and the viability, T/C (second compound 0.1 µM, first compound 0.03 µM) was 1.76%. It also gave a viability, T/C (second compound 0.1 µM, first compound 0.0949 µM) of 0.66%, a viability, T/C (second compound 0.1 µM, first compound 0.3 µM) of 0.29% and a viability, T/C (second compound 0.316 µM, first compound 0.000949 µM) of 1.29%. It also gave a viability, T/C (second compound 0.316 µM, first compound 0.003 µM) of 1.22%, a viability, T/C (second compound 0.316 µM, first compound 0.00949 µM) of 1.39% and a viability, T/C (second compound 0.316 µM, first compound 0.03 µM) of 1.21%. It also gave a viability, T/C (second compound 0.316 µM, first compound 0.0949 µM) of 0.77%, a viability, T/C (second compound 0.316 µM, first compound 0.3 µM) of 0.57% and a viability, T/C (second compound 1 µM, first compound 0.000949 µM) of 0.82%. For the same compound, the viability, T/C (second compound 1 µM, first compound 0.003 µM) was 1.08%, the viability, T/C (second compound 1 µM, first compound 0.00949 µM) was 1.07% and the viability, T/C (second compound 1 µM, first compound 0.03 µM) was 0.91%. It also gave a viability, T/C (second compound 1 µM, first compound 0.0949 µM) of 0.91% and a viability, T/C (second compound 1 µM, first compound 0.3 µM) of 0.37%.
